Reference: patent US6964949B2, “Pharmaceutical compositions for promoting the growth of gram-positive bacilli and increasing the acidity in the vagina and the use thereof” (Shanghai Jiao Da Onlly Co., Ltd., priority 2000, dated 2005)

What was measured:
Format in all cases: cell-based
Conditions in all cases: 1.0% yeast extract, pH 6.2, candle jar, 37° C.
Gram-positive bacilli = experiment: Experiment Example 2: comparison of saccharides, specimen culture, Gram smear
Source text: (§1) • (1)The preparation of the compositions: Different saccharides were used respectively to prepare the following compositions according to the methods mentioned above: glucose, fructose, galactose, mannose, maltose, sucrose, lactose, lactulose, mycose, cellobiose, melibiose, melitose, malto-oligosaccharide, isomaltooligosaccharide and fructooligosaccharide, dextrin, starch, and glycogen: • A. 5% glucose, 1.0% yeast extract, 1.6% xanthan gum, pH adjusted to 6.2; • B. 5% fructose, 1.0% yeast extract, 1.6% xanthan gum, pH adjusted to 6.2; • C. 5% galactose, 1.0% yeast extract, 1.6% xanthan gum, pH adjusted to 6.2; • D. 5% mannose, 1.0% yeast extract, 1.6% xanthan gum, pH adjusted to 6.2; • E. 10.0% maltose, 1.0% yeast extract, 1.6% xanthan gum, pH adjusted to 6.2; • F. 10.0% sucrose, 1.0% yeast extract, 1.6% xanthan gum, pH adjusted to 6.2; • G. 10.0% lactose, 1.0% yeast extract, 1.6% xanthan gum, pH adjusted to 6.2; • H. 10.0% lactulose, 1.0% yeast extract, 1.6% xanthan gum, pH adjusted to 6.2; • I. 10.0% cellobiose, 1.0% yeast extract, 1.6% xanthan gum, pH adjusted to 6.2; • J. 10.0% mycose, 1.0% yeast extract, 1.6% xanthan gum, pH adjusted to 6.2; • K. 10.0% melibiose, 1.0% yeast extract, 1.6% xanthan gum, pH adjusted to 6.2; • L. 10.0% melitose, 1.0% yeast extract, 1.6% xanthan gum, pH adjusted to 6.2; • M. 10.0% maltooligosaccharide, 1.0% yeast extract, 1.6% xanthan gum, pH adjusted to 6.2; • N. 10.0% isomaltooligosaccharide, 1.0% yeast extract, 1.6% xanthan gum, pH adjusted to 6.2; • O. 10.0% fructooligosaccharide, 1.0% yeast extract, 1.6% xanthan gum, pH adjusted to 6.2; • P. 10.0% dextrin, 1.0% yeast extract, 0.5% xanthan gum, pH adjusted to 6.2; • Q. 10.0% starch, 1.0% yeast extract, pH adjusted to 6.2; • R. 10.0% glycogen, 1.0% yeast extract, 1.6% xanthan gum, pH adjusted to 6.2. • (2)The preparation of the test tubes: The compositions prepared above were filled into test tubes, with each tube containing 5 ml, sterilized, and kept until use for experiment. • (3) Specimen suspension: Vaginal secretion was taken from one of the patients suffering from typical bacterial vagmosis with a cotton swab, then the swab was washed in 2 ml sterilized Trypcase-soy Broth immediately, and thus the specimen suspension was ready. […] Then the tubes were placed in a candle jar and cultivated at 37° C. After 24 hours and 48 hours' culture, culture samples were taken respectively from each of the tubes, then the Gram smears of the samples were observed and the pH values of culture samples were tested. […] Meanwhile the pH values in most of the composition tubes decreased to different levels. […] And maltose and sucrose exert better effect in promoting the growth of Gram-positive bacilli and the production of acids than that of the other kinds of oligosaccharides.

Gram-negative bacilli = experiment: as above
Source text: as §1

Gram-positive cocci = experiment: as above
Source text: as §1

Gram-negative cocci = experiment: as above
Source text: as §1

[1] = system: vaginal secretion specimen of a patient suffering from typical bacterial vaginosis; experiment: Experiment Example 2: pH of culture samples (production of acids)
Source text: as §1

[2] = 10.0% saccharide, 1.6% xanthan gum (dextrin 0.5%, starch none)
[3] = 5% saccharide, 1.6% xanthan gum

Row | Compound | Bacteria G + b (Gram-positive bacilli), 24 hours-culture (Gram-positive bacilli; [2]) | Bacteria G + b (Gram-positive bacilli), 48 hours-culture (Gram-positive bacilli; [2]) | Bacteria G − b (Gram-negative bacilli), 24 hours-culture (Gram-negative bacilli; [2]) | Bacteria G − b (Gram-negative bacilli), 48 hours-culture (Gram-negative bacilli; [2]) | Bacteria G + c (Gram-positive cocci), 24 hours-culture (Gram-positive cocci; [2]) | Bacteria G + c (Gram-positive cocci), 48 hours-culture (Gram-positive cocci; [2]) | Bacteria G − c (Gram-negative cocci), 24 hours-culture (Gram-negative cocci; [2]) | Bacteria G − c (Gram-negative cocci), 48 hours-culture (Gram-negative cocci; [2]) | pH, 24 hours-culture [1, 2] | pH, 48 hours-culture [1, 2] | Bacteria G + b (Gram-positive bacilli), 24 hours-culture (Gram-positive bacilli; [3]) | Bacteria G + b (Gram-positive bacilli), 48 hours-culture (Gram-positive bacilli; [3]) | Bacteria G − b (Gram-negative bacilli), 24 hours-culture (Gram-negative bacilli; [3]) | Bacteria G − b (Gram-negative bacilli), 48 hours-culture (Gram-negative bacilli; [3]) | Bacteria G + c (Gram-positive cocci), 24 hours-culture (Gram-positive cocci; [3]) | Bacteria G + c (Gram-positive cocci), 48 hours-culture (Gram-positive cocci; [3]) | Bacteria G − c (Gram-negative cocci), 24 hours-culture (Gram-negative cocci; [3]) | Bacteria G − c (Gram-negative cocci), 48 hours-culture (Gram-negative cocci; [3]) | pH, 24 hours-culture [1, 3] | pH, 48 hours-culture [1, 3]
1 | dextrin | G + b, +++ (About 100 bacteria or more per field vision under oil-immersion lens, even uncountable) | G + b, ++ (About 10-99 bacteria per field of vision under oil-immersion lens) | G − b, ++ (About 10-99 bacteria per field of vision under oil-immersion lens) | G − b, + (1-9 bacteria per field of vision under oil-immersion lens) | G + c, + (1-9 bacteria per field of vision under oil-immersion lens) | G + c, − (No or less than one bacterium per field of version under oil-immersion lens) | G − c, − (No or less than one bacterium per field of version under oil-immersion lens) | G − c, − (No or less than one bacterium per field of version under oil-immersion lens) | 6.2 | 5.8 |  |  |  |  |  |  |  |  |  | 
2 | O=C(CO)[C@@H](O)[C@H](O)[C@H](O)CO [Fructose, fructose] |  |  |  |  |  |  |  |  |  |  | G + b, ++ (About 10-99 bacteria per field of vision under oil-immersion lens) | G + b, +++ (About 100 bacteria or more per field vision under oil-immersion lens, even uncountable) | G − b, + (1-9 bacteria per field of vision under oil-immersion lens) | G − b, + (1-9 bacteria per field of vision under oil-immersion lens) | G + c, + (1-9 bacteria per field of vision under oil-immersion lens) | G + c, + (1-9 bacteria per field of vision under oil-immersion lens) | G − c, − (No or less than one bacterium per field of version under oil-immersion lens) | G − c, − (No or less than one bacterium per field of version under oil-immersion lens) | 5.4-5.8 | 5.4-5.8
3 | OC[C@H]1O[C@@H](O[C@H]2[C@H](O)[C@@H](O)C(O)O[C@@H]2CO)[C@H](O)[C@@H](O)[C@H]1O (stereo partly drawn) [Lactose, lactose] | G + b, ++ (About 10-99 bacteria per field of vision under oil-immersion lens) | G + b, ++ (About 10-99 bacteria per field of vision under oil-immersion lens) | G − b, + (1-9 bacteria per field of vision under oil-immersion lens) | G − b, + (1-9 bacteria per field of vision under oil-immersion lens) | G + c, +++ (About 100 bacteria or more per field vision under oil-immersion lens, even uncountable) | G + c, + (1-9 bacteria per field of vision under oil-immersion lens) | G − c, − (No or less than one bacterium per field of version under oil-immersion lens) | G − c, − (No or less than one bacterium per field of version under oil-immersion lens) | 5.8 | 5.1-5.4 |  |  |  |  |  |  |  |  |  | 
4 | O=C[C@H](O)[C@@H](O)[C@@H](O)[C@H](O)CO [Galactose, galactose] |  |  |  |  |  |  |  |  |  |  | G + b, ++ (About 10-99 bacteria per field of vision under oil-immersion lens) | G + b, + (1-9 bacteria per field of vision under oil-immersion lens) | G − b, − (No or less than one bacterium per field of version under oil-immersion lens) | G − b, + (1-9 bacteria per field of vision under oil-immersion lens) | G + c, ++ (About 10-99 bacteria per field of vision under oil-immersion lens) | G + c, ++ (About 10-99 bacteria per field of vision under oil-immersion lens) | G − c, − (No or less than one bacterium per field of version under oil-immersion lens) | G − c, − (No or less than one bacterium per field of version under oil-immersion lens) | 6.7 | 6.7
5 | O=C[C@H](O)[C@@H](O)[C@H](O[C@@H]1O[C@H](CO)[C@@H](O)[C@H](O)[C@H]1O)[C@H](O)CO [Cellobiose, cellobiose] | G + b, ++ (About 10-99 bacteria per field of vision under oil-immersion lens) | G + b, ++ (About 10-99 bacteria per field of vision under oil-immersion lens) | G − b, + (1-9 bacteria per field of vision under oil-immersion lens) | G − b, + (1-9 bacteria per field of vision under oil-immersion lens) | G + c, + (1-9 bacteria per field of vision under oil-immersion lens) | G + c, + (1-9 bacteria per field of vision under oil-immersion lens) | G − c, − (No or less than one bacterium per field of version under oil-immersion lens) | G − c, − (No or less than one bacterium per field of version under oil-immersion lens) | 5.8 | 5.8 |  |  |  |  |  |  |  |  |  | 
6 | OC[C@H]1O[C@H](OC[C@H]2O[C@H](O[C@]3(CO)O[C@H](CO)[C@@H](O)[C@@H]3O)[C@H](O)[C@@H](O)[C@@H]2O)[C@H](O)[C@@H](O)[C@H]1O [Melitose, melitose] | G + b, ++ (About 10-99 bacteria per field of vision under oil-immersion lens) | G + b, +++ (About 100 bacteria or more per field vision under oil-immersion lens, even uncountable) | G − b, + (1-9 bacteria per field of vision under oil-immersion lens) | G − b, ++ (About 10-99 bacteria per field of vision under oil-immersion lens) | G + c, + (1-9 bacteria per field of vision under oil-immersion lens) | G + c, + (1-9 bacteria per field of vision under oil-immersion lens) | G − c, + (1-9 bacteria per field of vision under oil-immersion lens) | G − c, − (No or less than one bacterium per field of version under oil-immersion lens) | 6.7 | 5.8 |  |  |  |  |  |  |  |  |  | 
